Assay results published in US20210267984A1, “APPLICATION OF ALLOPURINOL IN PREPARATION OF DRUG FOR TREATING CANCER WITH HIGH EXPRESSION OF PAICS GENE” (priority 2018, published 2021).

Assays:
[1] = system: cancer with abnormally high expression of the PAICS gene; assay: Anti-cancer and therapeutic effect, cancers with abnormally high PAICS expression
Excerpt: (§1) This property of allopurinol is different from those of most chemotherapeutic drugs.

Bel-7402 = details: data of CN102746306A; cited from earlier work
[2] = system: Uterine Corpus Endometrial Carcinoma; assay: Anti-cancer effect of allopurinol (cell biology screening combined with animal experiments); details: UCEC; PAICS abnormally high expression
Excerpt: as §1

[3] = system: Liver hepatocellular carcinoma; assay: as above; details: LIHC; PAICS abnormally high expression
Excerpt: as §1

[4] = system: Cervical squamous cell carcinoma and endocervical adenocarcinoma; assay: as above; details: CESC; PAICS abnormally high expression
Excerpt: as §1

Esophageal carcinoma = assay: as above; details: ESCA; PAICS abnormally high expression
Excerpt: as §1

Colon adenocarcinoma = assay: as above; details: COAD; PAICS abnormally high expression
Excerpt: as §1

Lung adenocarcinoma = assay: as above; details: LUAD; PAICS abnormally high expression
Excerpt: as §1

Prostate adenocarcinoma = assay: as above; details: PRAD; PAICS abnormally high expression
Excerpt: as §1

[5] = system: Head and Neck squamous cell carcinoma; assay: as above; details: HNSC; PAICS abnormally high expression
Excerpt: as §1

Glioblastoma multiforme = assay: as above; details: GBM; PAICS abnormally high expression
Excerpt: as §1

Rectum adenocarcinoma = assay: as above; details: READ; PAICS abnormally high expression
Excerpt: as §1

[6] = system: Bladder Urothelial Carcinoma; assay: as above; details: BLCA; PAICS abnormally high expression
Excerpt: as §1

[7] = system: Lung squamous cell carcinoma; assay: as above; details: LUSC; PAICS abnormally high expression
Excerpt: as §1

[8] = system: Breast invasive carcinoma; assay: as above; details: BRCA; PAICS abnormally high expression
Excerpt: as §1

Stomach adenocarcinoma = assay: as above; details: STAD; PAICS abnormally high expression
Excerpt: as §1

[9] = system: Pancreatic adenocarcinoma; assay: as above; details: PAAD; PAICS abnormally high expression
Excerpt: as §1

Cholangiocarcinoma = assay: as above; details: CHOL; PAICS abnormally high expression
Excerpt: as §1

[10] = system: cancers with non-abnormally high expression of the PAICS gene; assay: Therapeutic effect, cancers with non-abnormally high PAICS expression; details: cancers with non-abnormally high PAICS expression such as renal cancer, skin cutaneous melanoma, pheochromocytoma and paraganglioma
Excerpt: as §1

SMMC-7221 = details: data of CN102746306A; cited from earlier work

SMILES: Oc1ncnc2[nH]ncc12 [allopurinol, Allopurinol]
- anti-cancer and therapeutic effects [1]: significant anti-cancer and therapeutic effects
- anti-tumor activity (Bel-7402): no anti-tumor activity
- Anti-cancer effect of allopurinol [2]: Significant
- Anti-cancer effect of allopurinol [3]: Significant
- Anti-cancer effect of allopurinol [4]: Significant
- Anti-cancer effect of allopurinol (Esophageal carcinoma): Significant
- Anti-cancer effect of allopurinol (Colon adenocarcinoma): Significant
- Anti-cancer effect of allopurinol (Lung adenocarcinoma): Significant
- Anti-cancer effect of allopurinol (Prostate adenocarcinoma): Significant
- Anti-cancer effect of allopurinol [5]: Significant
- Anti-cancer effect of allopurinol (Glioblastoma multiforme): Significant
- Anti-cancer effect of allopurinol (Rectum adenocarcinoma): Significant
- Anti-cancer effect of allopurinol [6]: Significant
- Anti-cancer effect of allopurinol [7]: Significant
- Anti-cancer effect of allopurinol [8]: Significant
- Anti-cancer effect of allopurinol (Stomach adenocarcinoma): Significant
- Anti-cancer effect of allopurinol [9]: Significant
- Anti-cancer effect of allopurinol (Cholangiocarcinoma): Significant
- therapeutic effect [10]: no significant therapeutic effect
- anti-tumor activity (SMMC-7221): no anti-tumor activity
